Test results from US12077503B2, “Substituted cyclic amides and their use as herbicides” (FMC CORPORATION, priority 2015, dated 2024).

Assays:
Type in all cases: in vivo
Kochia (Kochia scoparia) [1] = assay: Test A preemergence; settings: Bassia scoparia, pre-emergence, 240 h, preemergence, 0 to 100 scale where 0 is no effect and 100 is complete control, read-out: Kochia plant response rating; for pest or weed control at 125 g/ha: 125 g ai/ha, approx. 10 d; for pest or weed control at 500 g/ha: 500 g ai/ha
Method in brief: (§1)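 Visual injury scores from 0, no effect, to 100, complete control, were assigned versus untreated controls roughly 10 d after treatment in the greenhouse. Test chemicals, formulated with surfactant in a non-phytotoxic solvent, were applied to planted seeds as a preemergence soil spray or postemergence to one- to two-leaf plants 2 to 10 cm tall, in loam–sand soil.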

[2] = test system: barnyardgrass (Echinochloa crus-galli); assay: Test A preemergence; settings: Echinochloa crus-galli, pre-emergence, 240 h, preemergence, read-out: Barnyardgrass plant response rating; for pest or weed control at 125 g/ha: 125 g ai/ha, 0 to 100 scale where 0 is no effect and 100 is complete control, approx. 10 d; for pest or weed control at 500 g/ha: 500 g ai/ha, visual injury rating about 10 d after treatment, 0 to 100 scale (0 no effect, 100 complete control)
Method in brief: as §1

[3] = test system: giant foxtail (Setaria faberii); assay: Test A preemergence; settings: Setaria faberi, pre-emergence, 240 h, preemergence, 0 to 100 scale where 0 is no effect and 100 is complete control, read-out: Foxtail, Giant plant response rating; for pest or weed control at 125 g/ha: 125 g ai/ha, approx. 10 d; for pest or weed control at 500 g/ha: 500 g ai/ha
Method in brief: as §1

[4] = test system: pigweed (Amaranthus retroflexus); assay: Test A preemergence; settings: Amaranthus retroflexus, pre-emergence, 240 h, preemergence, 0 to 100 scale where 0 is no effect and 100 is complete control, read-out: Pigweed plant response rating; for pest or weed control at 125 g/ha: 125 g ai/ha, approx. 10 d; for pest or weed control at 500 g/ha: 500 g ai/ha
[5] = test system: ragweed (common ragweed, Ambrosia elatior); assay: Test A preemergence; settings: Ambrosia artemisiifolia, pre-emergence, 240 h, preemergence, 0 to 100 scale where 0 is no effect and 100 is complete control, read-out: Ragweed plant response rating; for pest or weed control at 125 g/ha: 125 g ai/ha, approx. 10 d; for pest or weed control at 500 g/ha: 500 g ai/ha
Method in brief: as §1

[6] = test system: ryegrass, Italian (Italian ryegrass, Lolium multiflorum); assay: Test A preemergence; settings: Lolium multiflorum, pre-emergence, 240 h, preemergence, 0 to 100 scale where 0 is no effect and 100 is complete control, read-out: Ryegrass, Italian plant response rating; for pest or weed control at 125 g/ha: 125 g ai/ha, approx. 10 d; for pest or weed control at 500 g/ha: 500 g ai/ha
Method in brief: as §1

[7] = test system: Galium (catchweed bedstraw, Galium aparine); assay: Test A postemergence; settings: Galium, post-emergence, 240 h, postemergence, read-out: Galium plant response rating; for pest or weed control at 125 g/ha: 125 g ai/ha, visual injury on 0 to 100 scale (0 no effect, 100 complete control), approx. 10 d; for pest or weed control at 500 g/ha: 500 g ai/ha, 0 to 100 scale, 0 is no effect, 100 is complete control
Method in brief: as §1

Kochia (Kochia scoparia) [8] = assay: Test A postemergence; settings: Bassia scoparia, post-emergence, 240 h, postemergence, read-out: Kochia plant response rating; for pest or weed control at 125 g/ha: 125 g ai/ha, visual injury on 0 to 100 scale (0 no effect, 100 complete control), approx. 10 d; for pest or weed control at 500 g/ha: 500 g ai/ha, 0 to 100 scale, 0 is no effect, 100 is complete control
Method in brief: as §1

[9] = test system: ragweed (common ragweed, Ambrosia elatior); assay: Test A postemergence; settings: Ambrosia artemisiifolia, post-emergence, 240 h, postemergence, read-out: Ragweed plant response rating; for pest or weed control at 125 g/ha: 125 g ai/ha, visual injury on 0 to 100 scale (0 no effect, 100 complete control), approx. 10 d; for pest or weed control at 500 g/ha: 500 g ai/ha, 0 to 100 scale, 0 is no effect, 100 is complete control
Method in brief: as §1

[10] = test system: ryegrass, Italian (Italian ryegrass, Lolium multiflorum); assay: Test A postemergence; settings: Lolium multiflorum, post-emergence, 240 h, postemergence, read-out: Ryegrass, Italian plant response rating; for pest or weed control at 125 g/ha: 125 g ai/ha, visual injury on 0 to 100 scale (0 no effect, 100 complete control), approx. 10 d; for pest or weed control at 500 g/ha: 500 g ai/ha, 0 to 100 scale, 0 is no effect, 100 is complete control
Method in brief: as §1

[11] = test system: wheat (Triticum aestivum); assay: Test A postemergence; settings: Triticum aestivum, post-emergence, 240 h, postemergence, read-out: Wheat plant response rating; for plant injury at 125 g/ha: 125 g ai/ha, visual injury on 0 to 100 scale (0 no effect, 100 complete control), approx. 10 d; for plant injury at 500 g/ha: 500 g ai/ha, 0 to 100 scale, 0 is no effect, 100 is complete control
Method in brief: as §1

[12] = test system: barnyardgrass (Echinochloa crus-galli); assay: Test B flooded paddy test; settings: Echinochloa crus-galli, 250 g ai/ha, Flood; 0 to 100 scale where 0 is no effect and 100 is complete control; read-out: Barnyardgrass plant response rating
Method in brief: (§2)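 Response scored visually against untreated controls, 0 = no effect and 100 = complete control, 13–15 d after treatment in the greenhouse. Compounds added to paddy water held 3 cm above soil surface. Treatment given at 2-leaf stage.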

[13] = test system: ducksalad (Heteranthera limosa); assay: Test B flooded paddy test; settings: Heteranthera limosa, 250 g ai/ha, Flood; 0 to 100 scale where 0 is no effect and 100 is complete control; read-out: Ducksalad plant response rating
Method in brief: as §2

rice (Oryra sativa) = assay: Test B flooded paddy test; settings: Oryza sativa, 250 g ai/ha, Flood; 0 to 100 scale where 0 is no effect and 100 is complete control; read-out: Rice plant response rating
Method in brief: as §2

[14] = test system: sedge, umbrella (small-flower umbrella sedge, Cyperus difformis); assay: Test B flooded paddy test; settings: Cyperus difformis, 250 g ai/ha, Flood; 0 to 100 scale where 0 is no effect and 100 is complete control; read-out: Sedge, Umbrella plant response rating
Method in brief: as §2

CN1C[C@H](c2csc3ccccc23)[C@@H](C(=O)Nc2cccc(F)c2F)C1=O [Compound 1115]
pest or weed control at 125 g/ha (Kochia (Kochia scoparia) [1]): 70%
pest or weed control at 500 g/ha (Kochia (Kochia scoparia) [1]): 70%
pest or weed control at 125 g/ha [2]: 90%
pest or weed control at 500 g/ha [2]: 90%
pest or weed control at 125 g/ha [3]: 90%
pest or weed control at 500 g/ha [3]: 90%
pest or weed control at 125 g/ha [4]: 0%
pest or weed control at 500 g/ha [4]: 40%
pest or weed control at 125 g/ha [5]: 0%
pest or weed control at 500 g/ha [5]: 20%
pest or weed control at 125 g/ha [6]: 50%
pest or weed control at 500 g/ha [6]: 60%
pest or weed control at 125 g/ha [7]: 0%
pest or weed control at 500 g/ha [7]: 30%
pest or weed control at 125 g/ha (Kochia (Kochia scoparia) [8]): 20%
pest or weed control at 500 g/ha (Kochia (Kochia scoparia) [8]): 40%
pest or weed control at 125 g/ha [9]: 0%
pest or weed control at 500 g/ha [9]: 30%
pest or weed control at 125 g/ha [10]: 20%
pest or weed control at 500 g/ha [10]: 40%
plant injury at 125 g/ha [11]: 20%
plant injury at 500 g/ha [11]: 30%
pest or weed control at 250 g/ha [12]: 45%
pest or weed control at 250 g/ha [13]: 90%
pest or weed control at 250 g/ha (rice (Oryra sativa)): 30%
pest or weed control at 250 g/ha [14]: 0%

O=C1NC[C@H](c2csc(C(F)F)c2)[C@H]1C(=O)Nc1ccccc1F [Compound 1118]
pest or weed control at 125 g/ha (Kochia (Kochia scoparia) [1]): 0%
pest or weed control at 500 g/ha (Kochia (Kochia scoparia) [1]): 70%
pest or weed control at 125 g/ha [2]: 80%
pest or weed control at 500 g/ha [2]: 90%
pest or weed control at 125 g/ha [3]: 60%
pest or weed control at 500 g/ha [3]: 90%
pest or weed control at 125 g/ha [4]: 0%
pest or weed control at 500 g/ha [4]: 0%
pest or weed control at 125 g/ha [5]: 20%
pest or weed control at 500 g/ha [5]: 60%
pest or weed control at 125 g/ha [6]: 40%
pest or weed control at 500 g/ha [6]: 50%
pest or weed control at 125 g/ha [7]: 50%
pest or weed control at 500 g/ha [7]: 60%
pest or weed control at 125 g/ha (Kochia (Kochia scoparia) [8]): 0%
pest or weed control at 500 g/ha (Kochia (Kochia scoparia) [8]): 30%
pest or weed control at 125 g/ha [9]: 0%
pest or weed control at 500 g/ha [9]: 20%
pest or weed control at 125 g/ha [10]: 20%
pest or weed control at 500 g/ha [10]: 50%
plant injury at 125 g/ha [11]: 20%
plant injury at 500 g/ha [11]: 20%
pest or weed control at 250 g/ha [12]: 65%
pest or weed control at 250 g/ha [13]: 100%
pest or weed control at 250 g/ha (rice (Oryra sativa)): 40%
pest or weed control at 250 g/ha [14]: 0%
